Tests used:
MC4 = molecular target: T1, MC4 (Homo sapiens, UniProt P32245); test: GPCR radioligand binding (RLB) assay, melanocortin MC4, [125I]NDP-αMSH; conditions: 10 micromolar compound; recombinant human receptor membranes (HEK 293)
T1 construct: purchased Perkin Elmer BioSignal; host or cells: HEK 293
In short: (§1)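 Competition binding against radioligand ([125I]NDP-αMSH for MC4, [125I]SST-14 for SST5) on membranes of HEK 293 cells carrying the human receptor; buffer and incubation time optimized per receptor. Filtration through 0.5% PEI-treated glass fiber, washing, then scintillation counting.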

SST5 = molecular target: T2, SST5 (Homo sapiens, UniProt P35346); test: GPCR radioligand binding (RLB) assay, somatostatin SST5, [125I]SST-14; conditions: 10 micromolar compound; recombinant human receptor membranes (HEK 293)
T2 construct: purchased Perkin Elmer BioSignal; host or cells: HEK 293
T2 sequence (P35346 whole entry): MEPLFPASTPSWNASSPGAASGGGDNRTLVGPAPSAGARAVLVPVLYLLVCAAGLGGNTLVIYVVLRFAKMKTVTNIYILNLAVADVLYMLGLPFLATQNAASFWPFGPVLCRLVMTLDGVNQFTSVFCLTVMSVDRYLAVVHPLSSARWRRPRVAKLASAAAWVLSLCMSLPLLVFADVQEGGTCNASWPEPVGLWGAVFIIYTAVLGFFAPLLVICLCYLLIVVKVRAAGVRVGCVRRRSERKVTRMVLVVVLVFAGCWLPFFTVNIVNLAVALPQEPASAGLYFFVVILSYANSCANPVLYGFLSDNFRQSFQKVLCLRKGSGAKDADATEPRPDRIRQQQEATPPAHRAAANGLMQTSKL
In short: as §1

T1 sequence (P32245 whole entry): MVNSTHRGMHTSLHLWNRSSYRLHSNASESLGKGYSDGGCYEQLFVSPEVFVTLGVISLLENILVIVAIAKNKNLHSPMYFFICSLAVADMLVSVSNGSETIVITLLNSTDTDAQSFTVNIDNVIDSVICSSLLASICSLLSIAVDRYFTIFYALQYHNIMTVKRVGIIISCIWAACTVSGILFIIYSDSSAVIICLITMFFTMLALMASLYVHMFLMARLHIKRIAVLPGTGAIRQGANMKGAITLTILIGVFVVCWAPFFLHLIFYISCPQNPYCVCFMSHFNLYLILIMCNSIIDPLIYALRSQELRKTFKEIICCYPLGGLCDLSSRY

SMILES	MC4 inhibition at 10 micromolar (MC4)	SST5 inhibition at 10 micromolar (SST5)
CSC1OC(COCc2ccc(Cl)cc2)C(O)C(OCc2ccc(Cl)cc2)C1NC(=O)CCCNC(=N)N (stereo not drawn) [Compound 154]	+ (Indicates inhibition greater than . . . 50%)	+ (Indicates inhibition greater than . . . 50%)
CSC1OC(COCc2ccc(-c3ccccc3)cc2)C(O)C(OCc2ccc(Cl)cc2)C1NC(=O)CN (stereo not drawn) [Compound 155]	+ (Indicates inhibition greater than . . . 50%)	+ (Indicates inhibition greater than . . . 50%)
CSC1OC(COCc2ccc(-c3ccccc3)cc2)C(O)C(OCc2ccc(Cl)cc2)C1NC(=O)CNC(=N)N (stereo not drawn) [Compound 156]	+ (Indicates inhibition greater than . . . 50%)	+ (Indicates inhibition greater than . . . 50%)
CSC1OC(COCc2ccc(-c3ccccc3)cc2)C(O)C(OCc2ccc(Cl)cc2)C1NC(=O)CCN (stereo not drawn) [Compound 157]	+ (Indicates inhibition greater than . . . 50%)	+ (Indicates inhibition greater than . . . 50%)
CSC1OC(COCc2ccc(-c3ccccc3)cc2)C(O)C(OCc2ccc(Cl)cc2)C1NC(=O)CCNC(=N)N (stereo not drawn) [Compound 158]	+ (Indicates inhibition greater than . . . 50%)	+ (Indicates inhibition greater than . . . 50%)
CSC1OC(COCc2ccc(-c3ccccc3)cc2)C(O)C(OCc2ccc(Cl)cc2)C1NC(=O)CCCN (stereo not drawn) [Compound 159]	+ (Indicates inhibition greater than . . . 50%)	+ (Indicates inhibition greater than . . . 50%)
CSC1OC(COCc2ccc(-c3ccccc3)cc2)C(O)C(OCc2ccc(Cl)cc2)C1NC(=O)CCCNC(=N)N (stereo not drawn) [Compound 160]	+ (Indicates inhibition greater than . . . 50%)	+ (Indicates inhibition greater than . . . 50%)
CSC1OC(COCc2ccc3ccccc3c2)C(O)C(OCc2ccc(Cl)cc2)C1NC(=O)CN (stereo not drawn) [Compound 161]	+ (Indicates inhibition greater than . . . 50%)	+ (Indicates inhibition greater than . . . 50%)
CSC1OC(COCc2ccc3ccccc3c2)C(O)C(OCc2ccc(Cl)cc2)C1NC(=O)CNC(=N)N (stereo not drawn) [Compound 162]	+ (Indicates inhibition greater than . . . 50%)	+ (Indicates inhibition greater than . . . 50%)
CSC1OC(COCc2ccc3ccccc3c2)C(O)C(OCc2ccc(Cl)cc2)C1NC(=O)CCN (stereo not drawn) [Compound 163]	+ (Indicates inhibition greater than . . . 50%)	+ (Indicates inhibition greater than . . . 50%)
CSC1OC(COCc2ccc3ccccc3c2)C(O)C(OCc2ccc(Cl)cc2)C1NC(=O)CCNC(=N)N (stereo not drawn) [Compound 164]	+ (Indicates inhibition greater than . . . 50%)	+ (Indicates inhibition greater than . . . 50%)
CSC1OC(COCc2ccc3ccccc3c2)C(O)C(OCc2ccc(Cl)cc2)C1NC(=O)CCCN (stereo not drawn) [Compound 165]	+ (Indicates inhibition greater than . . . 50%)	+ (Indicates inhibition greater than . . . 50%)
CSC1OC(COCc2ccc3ccccc3c2)C(O)C(OCc2ccc(Cl)cc2)C1NC(=O)CCCNC(=N)N (stereo not drawn) [Compound 166]	+ (Indicates inhibition greater than . . . 50%)	+ (Indicates inhibition greater than . . . 50%)
CSC1OC(COCc2ccccc2)C(O)C(OCc2ccc(-c3ccccc3)cc2)C1NC(=O)CN (stereo not drawn) [Compound 167]	+ (Indicates inhibition greater than . . . 50%)	+ (Indicates inhibition greater than . . . 50%)
CSC1OC(COCc2ccccc2)C(O)C(OCc2ccc(-c3ccccc3)cc2)C1NC(=O)CNC(=N)N (stereo not drawn) [Compound 168]	+ (Indicates inhibition greater than . . . 50%)	+ (Indicates inhibition greater than . . . 50%)

Source: patent publication US7994140B2, “Classes of compounds that interact with GPCRs” (Alchemia Limited, priority 2002, dated 2011)
